≈ marks a conversion by molar mass, not a printed value. Calls of active or inactive are those of the source. No cut-off for these calls is given here.
Assays:
[1] = Cytotoxicity against human HepG2 cells assessed as cell viability at 80 uM incubated for 24 hrs by CCK8 assay relative to control; type: toxicity, cell-based; conditions: HepG2 cells, read-out: Activity
HepG2 [2] = test: Inhibition of insulin resistance in human HepG2 cells assessed as decrease in GlcN-induced glucose production at 20 uM preincubated for 1 hr followed by GlcN treatment for 18 hrs and subsequent insulin stimulation for 20 mins; type: functional, cell-based; conditions: time 19.33 hrs
HepG2 [3] = test: Lipid lowering activity in human HepG2 cells assessed as inhibition of FFA-induced triglyceride content at 20 uM preincubated for 1 hr followed by FFA treatment for 24 hrs relative to control; type: functional
[4] = Toxicity in Sprague-Dawley rat assessed as damage in heart at 20 mg/kg, po for 5 days; type: organism-based; conditions: in vivo, 120 h, time 5 day
[5] = Toxicity in Sprague-Dawley rat assessed as damage in liver at 20 mg/kg, po for 5 days; type: organism-based; conditions: in vivo, 120 h, time 5 day
[6] = Toxicity in Sprague-Dawley rat assessed as damage in lungs at 20 mg/kg, po for 5 days; type: organism-based; conditions: in vivo, 120 h, time 5 day
[7] = Toxicity in Sprague-Dawley rat assessed as damage in colon at 20 mg/kg, po for 5 days; type: organism-based; conditions: in vivo, 120 h, time 5 day
[8] = Toxicity in Sprague-Dawley rat assessed as damage in spleen at 20 mg/kg, po for 5 days; type: organism-based; conditions: in vivo, 120 h, time 5 day
[9] = Toxicity in Sprague-Dawley rat assessed as inflammatory cell infiltration in colon tissue at 20 mg/kg, po for 5 days; type: organism-based; conditions: in vivo, 120 h, time 5 day
[10] = Toxicity in Sprague-Dawley rat assessed as reduction in number of crypts in colon tissue at 20 mg/kg, po for 5 days; type: organism-based; conditions: in vivo, 120 h, time 5 day
[11] = Solubility of compound in PBS; type: physicochemical
[12] = Cytotoxicity against human HepG2 cells assessed as cell survival at 10 uM by MTT assay relative to control; type: toxicity, cell-based; conditions: read-out: Survival
[13] = Cytotoxicity against human HepG2 cells assessed as cell survival at 20 uM by MTT assay relative to control; type: toxicity, cell-based; conditions: read-out: Survival
HepG2 [14] = test: Cytotoxicity against human HepG2 cells assessed as cell survival at 40 uM by MTT assay; type: toxicity, cell-based; conditions: hepg2, 40 µM
HepG2 [15] = test: Lipid lowering activity in human HepG2 cells assessed as reduction in FFA-induced triglyceride content at 20 uM preincubated for 1 hr followed by FFA treatment for 24 hrs; type: functional, cell-based; conditions: time 25.0 hrs
[16] = Tmax in Sprague-Dawley rat at 20 mg/kg, po measured for 24 hrs by HPLC-ESI-MS analysis; type: ADME, organism-based; conditions: in vivo
[17] = Half life in Sprague-Dawley rat at 20 mg/kg, po measured for 24 hrs by HPLC-ESI-MS analysis; type: ADME, organism-based; conditions: in vivo
[18] = Cmax in Sprague-Dawley rat at 20 mg/kg, po measured for 24 hrs by HPLC-ESI-MS analysis; type: ADME, organism-based; conditions: in vivo
[19] = AUC (0 to t) in Sprague-Dawley rat at 20 mg/kg, po measured for 24 hrs by HPLC-ESI-MS analysis; type: ADME, organism-based; conditions: in vivo
[20] = MRT (0 to t) in Sprague-Dawley rat at 20 mg/kg, po measured for 24 hrs by HPLC-ESI-MS analysis; type: ADME, organism-based; conditions: in vivo
[21] = Clearance in Sprague-Dawley rat at 20 mg/kg, po measured for 24 hrs by HPLC-ESI-MS analysis; type: ADME, organism-based; conditions: in vivo
[22] = Volume of distribution in Sprague-Dawley rat at 20 mg/kg, po measured for 24 hrs by HPLC-ESI-MS analysis; type: ADME, organism-based; conditions: in vivo
[23] = Oral bioavailability in Sprague-Dawley rat at 20 mg/kg measured for 24 hrs by HPLC-ESI-MS analysis; type: ADME, organism-based; conditions: in vivo
Mus musculus [24] = test: Hypoglycemic activity in HFD-fed STZ-induced diabetic C57BL/6J mouse model assessed as decrease in blood glucose level at 20 mg/kg, po administered everyday for 3 weeks; type: functional, organism-based
Mus musculus [25] = test: Hypoglycemic activity in HFD-fed STZ-induced diabetic C57BL/6J mouse model assessed as increase in hepatic glycogen synthesis at 20 mg/kg, po administered everyday for 3 weeks; type: functional, organism-based
Mus musculus [26] = test: Inhibition of glucose production in HFD-fed STZ-induced diabetic C57BL/6J mouse model at 20 mg/kg, po administered everyday for 3 weeks; type: functional, organism-based
Mus musculus [27] = test: Improvement in hepatic total cholesterol level of HFD-fed STZ-induced diabetic C57BL/6J mouse model at 20 mg/kg, po administered everyday for 3 weeks; type: functional, organism-based
Mus musculus [28] = test: Hypoglycemic activity in HFD-fed STZ-induced diabetic C57BL/6J mouse model assessed as improvement in triglyceride level in liver at 20 mg/kg, po administered everyday for 3 weeks; type: functional, organism-based
Mus musculus [29] = test: Hypoglycemic activity in HFD-fed STZ-induced diabetic C57BL/6J mouse model assessed as reversal of diabetes-reduced MCCC1 level in liver at 20 mg/kg, po administered everyday for 3 weeks by Western blot analysis; type: functional, organism-based
Mus musculus [30] = test: Hypoglycemic activity in HFD-fed STZ-induced diabetic C57BL/6J mouse model assessed as increase in AKT phosphorylation in liver at 20 mg/kg, po administered everyday for 3 weeks by Western blot analysis; type: functional, organism-based
Mus musculus [31] = test: Hypoglycemic activity in HFD-fed STZ-induced diabetic C57BL/6J mouse model assessed as increase in GLUT4 level in liver at 20 mg/kg, po administered everyday for 3 weeks by Western blot analysis; type: functional, organism-based

## C[C@H]1[C@H](C)CC[C@]2(C(=O)O)CC[C@]3(C)C(=CC[C@@H]4[C@@]5(C)C[C@@H](O)[C@H](O)C(C)(C)[C@@H]5CC[C@]43C)[C@H]12 [COROSOLIC ACID]
[1]
  viability at 24 h, 80 µM: 13.5%
HepG2 [2]
  inhibition: Active
HepG2 [3]
  inhibition at 20 µM: 61.6%
[4]
  Activity: Non-toxic
[5]
  Activity: Non-toxic
[6]
  Activity: Non-toxic
[7]
  Activity: Non-toxic
[8]
  Activity: Non-toxic
[9]
  Activity: Non-toxic
[10]
  Activity: Non-toxic
[11]
  solubility: 0.55 µM (≈ 0.26 µg/mL)
[12]
  viability at 10 µM: 96%
[13]
  viability at 20 µM: 101%
HepG2 [14]
  Activity: Toxic
HepG2 [15]
  Activity: Active
[16]
  Tmax: 0.5 h
[17]
  half-life: 16.5 h
[18]
  Cmax: 802 ng/mL
[19]
  AUC(0-t) at 24 h: 9200 ng·h/mL
[20]
  MRT last at 24 h: 10.2 h
[21]
  CL/F: 23.1 mL/min/kg
[22]
  Vd: 33.04048 L/kg
[23]
  bioavailability: < 1%
Mus musculus [24]
  Activity: Active; Slight Decrease Was Observed
Mus musculus [25]
  Activity: Active
Mus musculus [26]
  inhibition: inactive
Mus musculus [27]
  Activity: inactive
Mus musculus [28]
  Activity: Active
Mus musculus [29]
  Activity: Active
Mus musculus [30]
  Activity: Active
Mus musculus [31]
  Activity: Active; Slight Increase Observed

From ChEMBL document CHEMBL6121000, “Corosolic acid and its derivatives targeting MCCC1 against insulin resistance and their hypoglycemic effect on type 2 diabetic mice” (Eur J Med Chem, 2025)
